# Reference: a melting point compilation (Tetko et al.; mined from patent text by program, amines drawn as free bases though some values may be those of a salt)
row,SMILES,melting point [°C]
1,Fc1nc(NCc2ccncc2)c2nc[nH]c2n1,200 to 202
2,COc1cc2c(cc1OC)C(CN1CCN(c3ccc(F)cc3)CC1)OCCC2 (stereo not drawn),135 to 136
3,N#Cc1ccccc1C1=CC2CC(=O)CC2C1 (stereo not drawn),36 to 37
4,C=C(C)SC1C(NC(=O)COc2ccccc2)C(=O)N1C=O (stereo not drawn),156 to 158
5,FC(F)(F)COC(c1ccccc1)(c1ccccc1)c1ccccc1,111
6,CSc1nccc(-c2c(-c3ccc(F)cc3)ncn2C2CCN(C)CC2)n1,181 to 182
7,C[Si](C)(C)/C=C/c1c(N)nc(-c2ccc(Cl)c(F)c2F)nc1C(=O)O,155 to 157
8,O=S(=O)(Cl)c1ccc2scnc2c1,110 to 112
9,Cc1nc(N2CCN(CCCC(F)(F)F)C2=O)sc1C(=O)NCc1ccncc1,178 to 181
10,Cc1cc(C(C)(C)CC(C)(C)C)c(O)c(C)c1CC(N)=O,179 to 181
11,CC(C)(C)OC(=O)N[C@H]1CC[C@H](ON2C(=O)c3ccccc3C2=O)CC1,134 to 135
12,CC(c1ccc(OCc2ccc(Cl)cc2Cl)cc1)n1ccnc1 (stereo not drawn),103 to 106
13,CNc1nc(-c2ccc(OCc3ccc(Cl)cc3)cc2)cs1,158 to 159
14,CNc1nc(OC)c(C(=O)O)cc1Br,224 to 225
15,CC1CN(c2c(F)c(N)c3c(=O)c(C(=O)O)cn(C4CC4)c3c2F)CCN1 (stereo not drawn),251 to 253
16,Cc1cc(NC(=O)c2cnoc2C2CC2)ccc1Br,133 to 135
17,COc1ccc(CC2NC(=O)NC2=O)cc1 (stereo not drawn),174
18,CSc1snc(SCOCC#CI)c1C#N,87 to 88
19,CCCCn1cc(C(=O)O)c(=O)c2cc(C)sc21,172 to 173
20,CCCCNC(=S)N1CCc2[nH]cnc2C1,130

row,SMILES,melting point [°C]
1,O=C(O)c1cc2c([N+](=O)[O-])c(O)c(O)cc2oc1=O,> 300
2,CC1(C)CS(=O)(=O)CC(C)(C)N1CC#N,188
3,Nc1nc(-c2cccnc2)c(Cl)s1,202
4,C=CCOC(=O)[C@@H]1CC[C@@H]2CN1C(=O)N2OCc1ccccc1,60 to 62
5,Nc1nc2c(s1)CCN(C/C=C\c1cccnc1)CC2,125 to 126
6,CCOC(=O)c1cn2c(n1)c(OCC)nc1cc(Br)c(Br)cc12,247 to 249
7,Fc1ccc(C(CN2CCCC2)=C2SCCCS2)cc1,69 to 70
8,Cc1cc(Cl)ccc1NC(=S)NC(=O)c1ccccc1,148
9,CC12CCCC1C1CCc3cc(F)ccc3C1CC2 (stereo not drawn),178
10,CCC12CCC3C4CCCC=C4CCC3C1CCC2=O (stereo not drawn),101 to 102
11,C#CCc1c(C)nc2c(OCc3ccccc3)cccn12,112
12,CN1CCN(Cc2nnc3n2-c2ccc(Cl)cc2C(c2ccccc2)=NC3)CC1,203 to 206
13,CC[C@@H](CO)Nc1nc(-c2ccc(Br)cc2)cs1,91 to 93
14,COc1cc(C=C(N)C(C)=O)ccc1OCC1CO1 (stereo not drawn),173 to 174
15,CC1(C)CCc2c(-c3ccoc3)nc3sc4c(NCc5ccccn5)ncnc4c3c2C1,235 to 236
16,O=C1CCC(c2ccc3[nH]c(-c4cccnc4)cc3c2)=NN1,298 to 300
17,CC(Nc1cc(Br)ccc1[N+](=O)[O-])C(=O)O (stereo not drawn),183 to 187
18,CCOC(=O)C(=Cc1cnccc1OC)N=[N+]=[N-],92 to 95
19,Nc1cc(C2CC2)nn1C(=O)Nc1ccccc1,97 to 99
20,Nc1nc(Nc2cccnc2)sc1C(=O)c1ccc(OC(F)F)cc1,143

row,SMILES,melting point [°C]
1,CC1CC(C)(C)OOC(C)(CCC(=O)NNC(=O)CCC(=O)O)O1 (stereo not drawn),122 to 126
2,NC1=CC(=O)C2CCCCC2C1 (stereo not drawn),208 to 210
3,NC(=O)N(O)C/C=C/c1cccc(C2=NOC(c3ccc(F)cc3)C2)c1 (stereo not drawn),159 to 160
4,CC(=O)Nc1ccc(C(C)=O)c(C)n1,201 to 202
5,C=CCSc1ccc(-c2nc3cnncc3[nH]2)c(OC)c1,240
6,Cc1[nH]cnc1CSCCNc1ncc(Cc2ccn(C)c(=O)c2)c(=O)[nH]1,202 to 204
7,O=c1[nH]c2ccc(Cl)cc2n1CCO,160
8,O=C(C1CCC(Nc2nccc(-n3cc(Cc4ccc(-c5ccncc5)cc4)nn3)n2)CC1)N1CCC(O)CC1 (stereo not drawn),266 to 267
9,COC(=O)CCC(=O)c1ccc(Br)cc1,49 to 51
10,CCC1(CC)CN(C(C)(C)C)C(=O)C(C)(CC)N1OC(C)(C)C#N (stereo not drawn),78 to 80
11,O=C(c1ccccc1)c1cc(CN2CCN(c3ccccc3)CC2)on1,100 to 102
12,CC(=O)N1CCN(CC#CCn2cncc2C)C1=O,93 to 95
13,Cn1ncc(/C=C/C(=O)O)c1-c1cccnc1,236 to 237
14,c1cc(Oc2cnccn2)c2cc[nH]c2c1,192 to 193
15,O=C(NC1(C2CC2)CC1)c1c(NC(=O)c2cc(C(F)(F)F)nn2-c2ncccc2Cl)c(Cl)cc2cn[nH]c12,> 250
16,COc1ccc2[nH]c(-c3nc(C)no3)cc2c1,141 to 142
17,COC(=O)CN1Cc2cc(C(=O)c3cccnc3)ccc2N=C1SC,114
18,CCCCCCC(C(C)O)n1cnc(C#N)c1N (stereo not drawn),110 to 111
19,CN(C)C(=O)c1ccc(CN(C)C(=O)C23CC4CC(CC(C4)C2)C3)s1,145 to 146
20,CCOC(=O)c1cnn(-c2ccccn2)c1S(N)(=O)=O,73 to 76

# The next lines start with the values.
row,melting point [°C],SMILES
1,64 to 65,Cc1oc(-c2ccccc2)nc1COc1ccc(C(C)CCC2SC(=O)NC2=O)cc1 (stereo not drawn)
2,138,CN(C)C(=S)Oc1ccc(C(=O)c2ccccc2C#N)cc1
3,78 to 79,COc1cccc(CCCc2c(CC#N)ccc(OC)c2OC)c1
4,91,COc1cccc(C(=O)O)c1CCc1cccc(Cl)c1
5,173,O=C1NC(=O)C(Cc2ccc(OCCNc3ncccn3)cc2)S1 (stereo not drawn)
6,134 to 135,COc1ccc(-c2cc(=O)c3cc(OCCCCCCN4CCC(O)CC4)ccc3o2)cc1
7,98 to 99,CCCCCCCC(=O)OCOC1=C(C(=O)Nc2ccccn2)N(C)S(=O)(=O)c2ccccc21
8,149 to 150,CC(C)(C)c1ccc(C[C@@H](NC(=O)c2ccc(F)c3ccccc23)[C@@H](O)c2ccc(F)cc2)cc1 (racemic)
9,192 to 193,Cc1c([N+](=O)[O-])ccnc1CSc1nc2ccc(C(F)(F)F)cc2[nH]1
10,115 to 116,Cc1oc(-c2ccccc2)nc1COc1ccc(C(=O)c2ccccc2)c(O)c1
11,123 to 124,COC(=O)CCc1oc(-c2ccc3c(c2)OCO3)nc1-c1ccc(Cl)cc1
12,107 to 108,CCc1ccn(-c2ccc(S(C)(=O)=O)cc2)c1-c1ccc(F)cc1
13,177 to 178,NC(=O)CCc1ccc([N+](=O)[O-])cc1
14,107 to 110,COc1ccc(CC(CCCC(C#N)(c2ccc(OC)c(OC)c2)C(C)C)[N+](=O)[O-])cc1OC (stereo not drawn)
15,60 to 61,CCCCc1ccc(CCCCC(NC(C)=O)(C(=O)OCC)C(=O)OCC)cc1
16,183 to 184,Cn1cc(C(=O)C(Cl)Cl)c(=O)c(-c2cccc(F)c2)c1
17,129 to 132,CCCCCCCCOc1cc(-c2cccc([N+](=O)[O-])c2)c(OCC(=O)O)c(-c2cccc([N+](=O)[O-])c2)c1
18,113 to 115,Cc1cccc(-c2[nH]c(C(C)C)nc2-c2ccc(F)c(-c3ccc(S(C)(=O)=O)cc3)c2)n1
19,105 to 108,CCCCOc1cc(CC(=O)O)n(Cc2ccc(Cl)cc2Cl)n1
20,145 to 147,CCCCc1nn(-c2cc([N+](=O)[O-])ccc2Cl)c(C(N)=O)c1Cc1ccc(Br)cc1F
21,155 to 158,CC(C)(Oc1ccc(CNc2ccc(Cl)cc2)cc1)C(=O)O
22,255 to 258,O=C(Nc1nc2ccc(Cl)cc2c2c1ncn2-c1ccccc1Cl)c1ccccc1

row,melting point [°C],SMILES
1,113 to 115,CC(=O)N(O)CCc1ccc2c(c1)C(=O)c1ccccc1CO2
2,224 to 227,CCOc1cc2c3c(cccc3c1)C(=O)N(O)C2=O
3,148 to 150,CCNC(=O)[C@H](C)C[C@H](O)[C@H](CC1CCCCC1)NC(=O)[C@H](Cc1cscn1)NC(=O)[C@@H](CC(=O)N(C)Cc1ccccc1)Cc1ccccc1
4,33 to 35,CCCCCCCCCCCCCCCCOC(=O)OC(C)=CC(C)=O
5,84 to 85,CCOC(=O)Cc1nc(-c2ccccc2)oc1-c1ccoc1
6,218,Cc1ncn(Nc2cccc(Cl)c2)c1-c1ccccc1
7,118,CC(C)N(CCOc1ccc2c(=O)c3ccc(OCCN(C(C)C)C(C)C)cc3oc2c1)C(C)C
8,233 to 235,COc1nc(C)cnc1NS(=O)(=O)c1cccnc1-c1ccc(C=CC(=O)O)cc1
9,114 to 116,Cc1cc(C#CC(C)(C)O)cc(C)c1Oc1ccc([N+](=O)[O-])c(Nc2ccc(C#N)cc2)n1
10,81 to 82,COc1ccc(S(=O)(=O)N(Cc2ccccc2)C(C(=O)NO)C(O)C(C)C)cc1 (stereo not drawn)
11,238 to 240,CCCCc1c(C(=O)O)sc2ccc([N+](=O)[O-])cc12
12,110 to 112,CCOC(=O)c1sc2cc(CO)ccc2c1Sc1cccc(OC)c1
13,230 to 232,Cc1cc2c(-c3cccc(C=O)c3)c(CC(=O)O)c(=O)oc2cc1Cl
14,150 to 151,CCOC(=O)/C=C/c1nc(COc2ccc(COc3nn(-c4ccccc4)cc3C=O)cc2OC)c(C)o1
15,84 to 86,CCCc1c(OCC#CCCCC(=O)O)ccc(C(C)=O)c1O
16,226 to 227,Cc1c(C(=O)N[C@H](C)[C@](O)(Cn2cncn2)c2ccc(F)cc2F)cnn1-c1c(Cl)cccc1Cl
17,117 to 118,CCn1nc(-c2cccc(Cl)c2)c2ncccc2c1=O
18,162 to 163,CCOCc1nc2c(N)nc3cc(/C=C/C(=O)OC)ccc3c2n1CCCCN1CCCS1(=O)=O
19,56 to 57,CCOC(=O)COc1ccc(CSCC(=O)OCC)cc1NC(=O)c1ccc(OCCCCc2ccccc2)cc1
20,206,O=C1c2ccccc2C(=O)N1CC(=O)N(CC(=O)n1ccnc1)c1ccccc1
21,169 to 170,Cc1cccc(-c2nc3cccnn3c2-c2ccnc(NC3CCCCC3)c2)c1
